# Patent US12485102B2, “Methods and compositions for treating cancer” (The Wistar Institute of Anatomy and Biology, priority 2017, dated 2025)
# What was measured:
# [1] = test system: CD8+ T cells from OT-1 mice; assay: Cell recovery and blast formation of in vitro stimulated, drug-treated OT-1 CD8+ T cells; format: cell-based
# [2] = test system: CD8+ T cells from OT-1 mice; assay: Seahorse oxygen consumption rates (OXPHOS) of drug-treated OT-1 CD8+ T cells; format: cell-based; settings: 10 or 100 μM, last 2 days of culture; FIG. 10
# Procedure: They were then analyzed for oxygen consumption rates (OCR) by Seahorse (left graph). In addition, after culture all live cells, CD8+ cells and activated CD44+CD8+ cells were counted to assess potential toxicity.
# Seahorse experiments were conducted to further characterize the effects of FF on CD8+ T cell metabolism.
# Cells were treated with 10 or 100 μM of FFA or FFP for the last 2 days of culture. […] See, FIG. 9. Both drugs increased OXPHOS as shown by increased oxygen consumption rates.
# [3] = test system: CD8+ T cells from OT-1 mice; assay: Phenotype, gene expression, fatty acid uptake and effector functions of drug-treated OT-1 CD8+ T cells in vitro
# Text: We initially tested stimulation of OT-1 T cells by the polyclonal activators anti-CD3 and anti-CD28 or by their cognate peptide [sequence] and IL-2.
# B16OVA tumor cells = assay: Adoptive transfer of drug-pre-treated OT-1 cells into B16OVA tumor-bearing mice: tumor progression; settings: cells treated with 100 μM of FFA, last 2 days; n=5/group
# Procedure: The cells were then treated for 2 days with 50 μM fenofibric acid or DMSO. Cells were injected i.v. into C57B1/6 recipient mice that had been injected 5 days earlier with B16OVA tumor cells. Tumor sizes were monitored. Tumor weights were measured at necropsy.
# Mice were injected with 10^5 B16.F10 melanoma cells that were transduced to express the immunodominant epitope of ovalbumin [sequence]
# Tumor growth in the mouse models was monitored for up to 24 days.
# To assess how metabolic reprogramming affects tumor antigen-specific CD8+ T cells within a TME, mice were challenged with B16OVA tumor cells. […] Tumor progression was monitored and once tumors became large, splenocytes and tumor-infiltrating cells were isolated and characterized.
# In another experiment, we treated cells with 100 μM of FFA (or as a control DMSO) for the last 2 days of culture. […] We analyzed tumor weights and splenocytes and tumor infiltrating lymphocytes (TILs) at necropsy for recovery, phenotypes, and functions of the donor OT-1 cells.
structure (smiles),measurement,setting,value
"C[C@H](NC(=O)C(C)(C)Oc1ccc(C(=O)c2ccc(Cl)cc2)cc1)C(=O)N[C@@H](CCC(=O)O)C(=O)O [FFP, (S)-2-((S)-2-(2-(4-(4-chlorobenzoyl)phenoxy)-2-methylpropanamido)propanamido)pentanedioic acid]",blast formation,"[1]; 100 μM, last 2 days of culture, FIG. 9",reduced blast formation
same,oxygen consumption rates (OXPHOS),[2],increased
same,fatty acid uptake,"[3]; 10 or 100 μM, last 2 days of culture",more pronounced
"CC(C)(Oc1ccc(C(=O)c2ccc(Cl)cc2)cc1)C(=O)O [FFA, fenofibric acid]",toxicity in the in vitro or ex vivo pretreatment of the T cells,"[1]; compared with fenofibrate, FIG. 8",reduced toxicity
same,mice that developed progressing tumors,B16OVA tumor cells,2 mice
same,mice with only small tumors that failed to grow,B16OVA tumor cells,3 mice
"CC(C)OC(=O)C(C)(C)Oc1ccc(C(=O)c2ccc(Cl)cc2)cc1 [FF, fenofibrate]",T cell proliferation in response to IL-2,[3]; FF-treated cells,no effect
